From ChEMBL document CHEMBL1201862, “PubChem BioAssay data set” (2004)
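Method: 48-hour compound exposure of cells in 96-well plates, five concentrations, linear interpolation of endpoints. GI50 is the concentration that inhibits growth by half.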 Activity calls are given as the source filed them. Cut-off read from the data, not from the text of the source: active = GI50 up to about 1.1 µM and inactive = higher. Where a SMILES comes first, the peptide text is derived from it. [ ]: non-standard residue; d: D form. Phe(4-Cl) = N[CH](Cc1ccc(Cl)cc1)C(=O)O

Assays:
Test in all cases: NCI-60 cell line screen, 48 h
A549 = system: A549
CAKI-1 = system: CAKI-1
DLD-1 = system: DLD-1
HCC 2998 = system: HCC 2998
KM12 = system: KM12
Malme-3M = system: Malme-3M
NCI-H226 = system: NCI-H226
NCI-H23 = system: NCI-H23
OVCAR-3 = system: OVCAR-3
SF-539 = system: SF-539
SK-MEL-5 = system: SK-MEL-5
SK-OV-3 = system: SK-OV-3
TK-10 = system: TK-10
U-251 = system: U-251
UACC-62 = system: UACC-62
SK-MEL-2 = system: SK-MEL-2
SR = system: SR
MCF7 = system: MCF7
MDA-N = system: MDA-N
T47D = system: T47D

Measured: GI50

COC1=CC2(C=CC1=O)c1cc(OC)c(OC)cc1CCN2C(=O)c1ccccc1 (stereo not drawn)
inactive: A549 > 100 µM | CAKI-1 > 100 µM | DLD-1 > 100 µM | HCC 2998 > 100 µM | KM12 > 100 µM | Malme-3M > 100 µM | NCI-H226 > 100 µM | NCI-H23 > 100 µM | OVCAR-3 > 100 µM | SF-539 > 100 µM | SK-MEL-5 > 100 µM | SK-OV-3 > 100 µM | TK-10 > 100 µM | U-251 > 100 µM | UACC-62 > 100 µM

Cc1ccc2c(c1)C(c1cccc3ccccc13)OC2=O (stereo not drawn)
inactive: A549 89.3 µM | CAKI-1 > 100 µM | DLD-1 75 µM | HCC 2998 > 100 µM | KM12 99.1 µM | Malme-3M 51.6 µM | NCI-H226 42.9 µM | NCI-H23 75.9 µM | OVCAR-3 > 100 µM | SK-MEL-2 > 100 µM | SK-MEL-5 31.4 µM | SK-OV-3 86.3 µM | SR > 100 µM | TK-10 31.6 µM | U-251 58.2 µM | UACC-62 > 100 µM

NC(=S)/N=C(/c1nc2ccc(Cl)cc2nc1O)C(O)c1ccccc1Cl (stereo not drawn)
inactive: A549 > 100 µM | DLD-1 > 100 µM | HCC 2998 > 100 µM | KM12 > 100 µM | Malme-3M > 100 µM | NCI-H226 > 100 µM | NCI-H23 > 100 µM | SF-539 > 100 µM | SK-MEL-2 > 100 µM | SK-OV-3 > 100 µM | TK-10 > 100 µM | U-251 > 100 µM | UACC-62 > 100 µM

CC(O)C(NC(=O)C(Cc1ccccc1)NC(=O)C(NC(=O)C(CCCCN)NC(=O)C(Cc1c[nH]c2ccccc12)NC(=O)C(Cc1ccc(O)cc1)NC(=O)C(Cc1ccc(Cl)cc1)NC(=O)C(N)Cc1ccccc1)C(C)O)C(N)=O (stereo not drawn) (H-F[Phe(4-Cl)]YWKTFT-NH2; configuration not given here)
inactive: A549 16.2 µM | CAKI-1 21.2 µM | DLD-1 20.3 µM | HCC 2998 25.4 µM | KM12 13.5 µM | NCI-H23 19.8 µM | OVCAR-3 17.4 µM | SF-539 20 µM | SK-MEL-2 19.9 µM | SK-OV-3 27.6 µM | U-251 18.7 µM | UACC-62 19.1 µM

COC(=N)c1csc(C2OC(CO)C(O)C2O)n1 (stereo not drawn)
inactive: A549 > 100 µM | CAKI-1 > 100 µM | DLD-1 83.9 µM | HCC 2998 > 100 µM | KM12 > 100 µM | Malme-3M > 100 µM | NCI-H226 > 100 µM | NCI-H23 > 100 µM | OVCAR-3 > 100 µM | SF-539 > 100 µM | SK-MEL-2 > 100 µM | SK-OV-3 > 100 µM | TK-10 > 100 µM | U-251 > 100 µM | UACC-62 > 100 µM

CCCCCCCC1(c2ccc(N)cc2)CCC(=O)NC1=O (stereo not drawn)
inactive: A549 31.6 µM | CAKI-1 27.4 µM | DLD-1 33.7 µM | HCC 2998 29.8 µM | KM12 48.4 µM | Malme-3M 28.1 µM | NCI-H23 38.3 µM | OVCAR-3 22.6 µM | SK-MEL-2 35.8 µM | SK-MEL-5 20.7 µM | SK-OV-3 33 µM | TK-10 49.7 µM | UACC-62 26.7 µM

CCCCCC1C2C(=O)NC(=O)C1C(=O)NC2=O (stereo not drawn)
inactive: A549 > 100 µM | CAKI-1 > 100 µM | DLD-1 > 100 µM | HCC 2998 > 100 µM | KM12 > 100 µM | Malme-3M > 100 µM | NCI-H226 > 100 µM | NCI-H23 > 100 µM | OVCAR-3 > 100 µM | SF-539 > 100 µM | SK-MEL-2 > 100 µM | SK-MEL-5 > 100 µM | SK-OV-3 > 100 µM | TK-10 > 100 µM | UACC-62 > 100 µM

CC1=NN(C(=O)c2ccc(Cl)cc2)C(=O)/C1=C/c1ccc(O)cc1
inactive: A549 > 100 µM | CAKI-1 > 100 µM | DLD-1 > 100 µM | HCC 2998 > 100 µM | KM12 > 100 µM | Malme-3M > 100 µM | NCI-H226 > 100 µM | NCI-H23 > 100 µM | OVCAR-3 > 100 µM | SF-539 > 100 µM | SK-MEL-2 > 100 µM | SK-MEL-5 > 100 µM | SK-OV-3 > 100 µM | TK-10 > 100 µM | U-251 > 100 µM | UACC-62 > 100 µM

N#Cc1c(-c2ccccc2)[nH]c2ccc(Cl)cc2c1=O
inactive: A549 13 µM | CAKI-1 1.62 µM | HCC 2998 > 100 µM | KM12 > 100 µM | MCF7 > 100 µM | MDA-N > 100 µM | Malme-3M > 100 µM | NCI-H226 38 µM | NCI-H23 92.5 µM | OVCAR-3 > 100 µM | SF-539 > 100 µM | SK-MEL-2 16.7 µM | SK-MEL-5 > 100 µM | SK-OV-3 25.1 µM | SR > 100 µM | T47D > 100 µM | TK-10 29.7 µM | U-251 28.2 µM | UACC-62 57.3 µM

C=CCc1cc(C(Cc2ccccc2)NC(C)C)cc(OCc2ccccc2)c1OCc1ccccc1 (stereo not drawn)
inactive: A549 16.7 µM | CAKI-1 15.7 µM | HCC 2998 13.7 µM | KM12 20.7 µM | MCF7 17.3 µM | MDA-N 13.2 µM | Malme-3M 15.5 µM | NCI-H226 17.7 µM | NCI-H23 18.8 µM | OVCAR-3 16.7 µM | SF-539 15.2 µM | SK-MEL-2 18.6 µM | SK-MEL-5 16.6 µM | SK-OV-3 14 µM | SR 12.2 µM | T47D 14.5 µM | TK-10 17.1 µM | U-251 14.3 µM | UACC-62 15.1 µM

Cc1cc(C)nc(NS(=O)(=O)c2ccc(NC(=O)c3cccc4c(Nc5ccc(S(N)(=O)=O)cc5)c5ccccc5nc34)cc2)n1
inactive: A549 > 100 µM | CAKI-1 > 100 µM | DLD-1 > 93.3 µM | HCC 2998 14.8 µM | KM12 15.4 µM | Malme-3M 18.2 µM | NCI-H226 > 100 µM | NCI-H23 37.1 µM | OVCAR-3 9.42 µM | SF-539 3.67 µM | SK-MEL-2 10.2 µM | SK-MEL-5 19.1 µM | SK-OV-3 15.2 µM | TK-10 > 74.6 µM | U-251 8.89 µM | UACC-62 2.88 µM

Cc1cccc2c1c(=O)c1c(O)c3c(cc1n2C)OC(C)(C)C=C3
inactive: A549 > 10 µM | CAKI-1 > 10 µM | HCC 2998 > 10 µM | KM12 > 10 µM | MCF7 6.15 µM | MDA-N > 10 µM | Malme-3M > 10 µM | NCI-H226 6.46 µM | NCI-H23 > 10 µM | OVCAR-3 > 10 µM | SF-539 > 10 µM | SK-MEL-2 > 10 µM | SK-MEL-5 > 10 µM | SK-OV-3 > 10 µM | SR 9.53 µM | T47D > 10 µM | TK-10 > 10 µM | U-251 > 10 µM | UACC-62 > 10 µM
